Read-outs that look alike come from different tables or passages of the source.
Legend:
[1] = In vitro drug release from TPU matrix delivery system prototypes; assay type: physicochemical; settings: for cumulative release of loaded drug: after 30 days; for release rate: per each ⅓ segment of the device
Experimental: Films were cut into disks with a 1-inch diameter die punch; disks were stacked and placed between two pieces of aluminum foil and compressed under a metal weight on a 120° C. dry bath. Thickness was monitored frequently until it measured 3.5 mm with digital calipers calibrated to 0.01 mm. Devices were cut from thick films using a custom rectangular 3.5 mm×13.3 mm die punch.
All release tests were performed in sink conditions in PBS supplemented with 2% w/v Cremophor® A25/Emulgin® B25. For the first 7-days of drug release testing, 1 mL samples were taken daily; following 7 days, samples were taken every 3-4 days. At all timepoints, bottles were drained and replaced with fresh media following sampling.
A qualification for selecting an optimal TPU for DPV delivery in this application is the time to achieve 50% cumulative release of drug. This is based on the standard use time of hormonal IUDs, which in practice are removed once about half of the initial load of drug is depleted from the device. Here, this standard was used as a benchmark to evaluate the sustained release properties of candidate delivery system designs. […] The fit of first-order release kinetics to the data was assessed. Equations 1 and 2 describe drug release from a system where dissolution is dependent on a concentration gradient.
Where k is the first order rate constant, Ct is the concentration of drug in solution at time t and C0 is the initial concentration of drug.
Where Q is the amount of drug release in time t and kh is the Higuchi release constant.
Based on the best-fit square-root of time relation, T50% was calculated for each TPU. […] Korsmeyer and Peppas provided a method for understanding drug release mechanisms of swelling and non-swelling polymeric systems, given by Equation 4: […]
Where Mt/M∝ is the fraction of drug released at time t, K is the rate constant, and n is the release exponent.

[2] = Triple active compound (RAL, MVC, ETR) intrauterine system in vivo study, tissue and secretion concentrations; settings: for concentration at 28 days: 28 days after insertion
Text: Described herein is a study conducted on an intrauterine system having a plurality of delivery systems (such as shown in FIGS. 1D and 1E). This study included three matrix delivery systems. The first delivery system included raltegravir (RAL), the second delivery system included etravirine (ETR), and the third delivery system included maraviroc (MVC). The intrauterine system was implanted and retained in the uterus of a patient for 28 days.
Multiple samples were taken before, during, and after insertion of the intrauterine system. Plasma samples were taken an hour before insertion, at insertion, 24 hours after insertion, 48 hours after insertion, 72 hours after insertion, 7 days after insertion, 14 days after insertion, 21 days after insertion, and 28 days after insertion (when the intrauterine system was removed). Vaginal swabs were taken an hour before insertion, at 7 days after insertion, 14 days after insertion, 21 days after insertion, and 28 days after insertion. Vaginal biopsies were taken an hour before insertion, 7 days after insertion, and 28 days after insertion. Endometrial and cervical biopsies were taken an hour before insertion and 28 days after insertion. Histology was also performed an hour before insertion, and consistent visual inspection was done throughout for safety.

[3] = Post-use assay of residual ARVs in removed IUDs (triple study); assay type: in vivo; settings: for Average dose / Total DPV released: 28 days
Text: FIGS. 15A-15C are graphs showing post-use assays of residual anti-retroviral pharmaceutical compositions in removed intrauterine devices, in accordance with the present technology. […]

[4] = 1 wt % loading, TPU2 matrix, from best-fit release model
[5] = 1 wt % loading, TPU3 matrix, from best-fit release model
[6] = 1 wt % loading, TPU4 matrix, from best-fit release model
[7] = 1 wt %, TPU4 matrix, total by 30 days
[8] = 16.6 wt % loading, TPU4 matrix, from best-fit release model
[9] = 16.6 wt %, TPU4 matrix, final rate at 30 days

| Structure (SMILES) | Actual T50% ([1]; 1 wt % loading, TPU2 matrix) [days] | First-Order: k ([1]; 1 wt % loading, TPU2 matrix) | Higuchi: kH ([1]; 1 wt % loading, TPU2 matrix) | Predicted T50% [1, 4] [days] | Actual T50% ([1]; 1 wt % loading, TPU3 matrix) [days] | First-Order: k ([1]; 1 wt % loading, TPU3 matrix) | Higuchi: kH ([1]; 1 wt % loading, TPU3 matrix) | Korsmeyer-Peppas Constant: n ([1]; 1 wt % loading, TPU3 matrix) | Predicted T50% [1, 5] [days] | First-Order: k ([1]; 1 wt % loading, TPU4 matrix) | Higuchi: kH ([1]; 1 wt % loading, TPU4 matrix) | Korsmeyer-Peppas Constant: n ([1]; 1 wt % loading, TPU4 matrix) | Predicted T50% [1, 6] [days] | cumulative release [1, 7] [%] | First-Order: k ([1]; 16.6 wt % loading, TPU4 matrix) | Higuchi: kH ([1]; 16.6 wt % loading, TPU4 matrix) | Korsmeyer-Peppas Constant: n ([1]; 16.6 wt % loading, TPU4 matrix) | Predicted T50% [1, 8] [days] | cumulative release of loaded drug ([1]; 16.6 wt %, TPU4 matrix) | release rate [1, 9] | further results |
| --- | --- | --- | --- | --- | --- | --- | --- | --- | --- | --- | --- | --- | --- | --- | --- | --- | --- | --- | --- | --- | --- |
| Nc1nc2c(ncn2COCCO)c(=O)[nH]1 [ACV, acyclovir] |  |  |  |  |  |  |  |  |  |  |  |  |  |  |  |  |  |  |  |  | minimum release rate ([1]; 20 wt % in TPU4 matrix, 15 days in vitro dissolution): 59 µg/day; cumulative release ([1]; 20 wt % in TPU4 matrix, after 15 days): 18%; Predicted T50% ([1]; 20 wt % in TPU4 matrix, best-fit in vitro release model): 156 days; maximum release ([1]; High saturation matrixes): 1112 micrograms per day; minimum release ([1]; High saturation matrixes): 109 micrograms per day |
| Cc1cc(C#N)cc(C)c1Oc1nc(Nc2ccc(C#N)cc2)nc(N)c1Br [ETR, etravirine] | 13 | 0.002, h^−1 | 0.026, %/h^1/2 | 15.5 | 13 | 0.002, h^−1 | 0.030, %/h^1/2 | 0.585, | 12 | 0.0004, h^−1 | 0.011, %/h^1/2 | 0.535, | 90 | 27.70 | 0.0001, h^−1 | 0.003, %/h^1/2 | 0.599, | 857 | 8.5% | ~14 µg/day | Korsmeyer-Peppas Constant: n ([1]; 1 wt % loading, TPU2 matrix): 0.484,; concentration at 28 days ([2]; female, human, endometrium, other: intrauterine (implanted intrauterine system), read-out: tissue concentration, Endometrium): 0.434 µg/mL; Mean concentration in vaginal secretions ([2]; in vivo): 0.3443 µg/mL; T50% [3]: 300 days; Average dose [3]: 15.24 µg/day; Total DPV released [3]: 0.43 mg |
| Cc1nnc(C(=O)NC(C)(C)c2nc(C(=O)NCc3ccc(F)cc3)c(O)c(=O)n2C)o1 [RAL, raltegravir] | <1 | 0.016, h^−1 | 0.052, %/h^1/2 | 2 | 1 | 0.004, h^−1 | 0.023, %/h^1/2 | 0.201, | 7 | 0.0004, h^−1 | 0.010, %/h^1/2 | 0.333, | 109 | 31.71 | 0.0002, h^−1 | 0.006, %/h^1/2 | 0.455, | 251 | approximately 18% | around 22 μg/day | time to reach 100% release ([1]; 1 wt %, TPU2 matrix): 7 days; cumulative release of encapsulated drug ([1]; 1 wt %, TPU2 matrix, first 24 hours): approximately 50%; cumulative release of encapsulated drug ([1]; 1 wt %, TPU3 matrix, by 30 days / one month): 100%; cumulative release of encapsulated drug ([1]; 1 wt %, TPU3 matrix, first 24 hours): approximately 50%; First-Order: k ([1]; 30 wt % loading, TPU4 matrix): 0.0002, h^−1; Higuchi: kH ([1]; 30 wt % loading, TPU4 matrix): 0.005, %/h^1/2; Predicted T50% ([1]; 30 wt % loading, TPU4 matrix, from best-fit release model): 363 days; cumulative release of encapsulated drug ([1]; 30 wt %, TPU4 matrix, at 30 days): approximately 17%; release rate ([1]; 30 wt %, TPU4 matrix, at study terminus (30 days)): 41.13 µg/day; concentration at 7 days ([2]; female, human, in vivo, 7 days after insertion, read-out: tissue concentration, Vagina): 0.194 µg/mL; concentration at 28 days ([2]; female, human, in vivo, read-out: tissue concentration, Cervix): 0.237 µg/mL; concentration at 28 days ([2]; female, human, in vivo, read-out: tissue concentration, Endometrium): 0.237 µg/mL; concentration at 28 days ([2]; female, human, in vivo, read-out: tissue concentration, Rectum): 0.0399 µg/mL; concentration at 28 days ([2]; female, human, in vivo, read-out: tissue concentration, Vagina): 0.253 µg/mL; T50% [3]: 101 days; Average dose [3]: 46.31 µg/day; Total DPV released [3]: 1.30 mg |
